In the Deep4Chem optical property database:
Several values for one entry are separate records, joined by “and”; a condition that tells them apart may be missing. Identical values can stand only once. Values belong to the molecule of their own block, whether it stands above or below them.

Experiment: solvent given as SMILES

Structure (SMILES): c1ccc2c(c1)OP1(=NP(Oc3ccc4ccc5cccc6ccc3c4c56)(Oc3ccc4ccc5cccc6ccc3c4c56)=NP(Oc3ccc4ccc5cccc6ccc3c4c56)(Oc3ccc4ccc5cccc6ccc3c4c56)=N1)Oc1ccccc1-2
fluorescence lifetime (in ClCCl): 1.23 ns

Structure (SMILES): CC1=CC(C)=[N+]2C1=C(c1ccccc1)c1c(C)cc(C)n1[B-]2(F)F
fluorescence lifetime (in C1CCOC1): 3.73 ns | fluorescence lifetime (in CC#N): 3.81 ns | fluorescence lifetime (in CC(=O)C(C)(C)C): 3.39 ns | fluorescence lifetime (in CC(C)=O): 3.65 ns | fluorescence lifetime (in CCCCCC): 3.37 ns | fluorescence lifetime (in CCOC(C)=O): 3.98 ns | fluorescence lifetime (in CO): 3.9 ns | fluorescence lifetime (in Cc1ccccc1): 3.4 ns | fluorescence lifetime (in ClCCl): 3.97 ns

Structure (SMILES): F[B-]1(F)n2cccc2C=C2C=CC=[N+]21
fluorescence lifetime (in C1CCCCC1): 6.47 ns | fluorescence lifetime (in CC(C)=O): 7.12 ns | fluorescence lifetime (in CCCCCC): 6.79 ns | fluorescence lifetime (in CCO): 7.02 ns | fluorescence lifetime (in CCOC(C)=O): 6.9 ns | fluorescence lifetime (in CO): 7.35 ns and 7.33 ns | fluorescence lifetime (in ClCCl): 6.78 ns | fluorescence lifetime (in OCC(F)(F)F): 8.23 ns

Structure (SMILES): c1cc2c3c(cccc3c1)C(N1CCOCCOCCOCCOCC1)=N2
fluorescence lifetime (in CC#N): 0.55 ns

Structure (SMILES): CC1=CC(/C=C/c2ccc([N+](C)(C)C)cc2)=[N+]2C1=C(c1ccc(C#CCO[C@@H]3O[C@H](CO)[C@@H](O)C(O)[C@H]3O)cc1)c1c(C)cc(/C=C/c3ccc([N+](C)(C)C)cc3)n1[B-]2(F)F (stereo partly specified)
fluorescence lifetime (in CC#N): 5.3 ns

Structure (SMILES): CC1(CCCCC(=O)NCCCCCCO)C(/C=C/C=C/C=C2/N(CCCS(=O)(=O)[O-])c3ccc(S(=O)(=O)[O-])cc3C2(C)C)=[N+](CCCS(=O)(=O)[O-])c2ccc(S(=O)(=O)[O-])cc21 (stereo unspecified)
fluorescence lifetime (in O): 1 ns

Structure (SMILES): Cc1ccc(/C2=c3\cc/c(o3)=C(\c3ccc(C)cc3)c3ccc([nH]3)-c3ccc4n3[P-](=O)(=O)[N+]3=C(C=CC3=C4c3cccs3)c3ccc2[nH]3)cc1
fluorescence lifetime (in ClC(Cl)Cl): 4.3 ns

Structure (SMILES): CCCCC(CC)CN1C(=O)c2cc(Oc3ccc(C(C)(C)C)cc3)c3c4c(Cl)cc5c6c(cc(Cl)c(c7c(Oc8ccc(C(C)(C)C)cc8)cc(c2c37)C1=O)c64)C(=O)N(c1c(C(C)C)cccc1C(C)C)C5=O (stereo unspecified)
fluorescence lifetime (in Cc1ccccc1): 6.73 ns

Structure (SMILES): COc1ccc(-c2cc(C)nc(-c3ccc(-n4c5ccccc5c5ccccc54)cc3)n2)cc1
fluorescence lifetime (in C1CCOC1): 2.56 ns | fluorescence lifetime (in CN(C)C=O): 5.31 ns | fluorescence lifetime (in Cc1ccccc1): 1.21 ns | fluorescence lifetime (in ClC(Cl)Cl): 2.97 ns

Structure (SMILES): CC1(C)c2ccccc2-c2cc3c4cc(-n5c6ccccc6c6ccccc65)ccc4n(-c4ccc(-c5nc(-c6ccccc6)nc(-c6ccccc6)n5)cc4)c3cc21
fluorescence lifetime (in O=P(c1ccccc1)(c1ccccc1)c1ccccc1Oc1ccccc1P(=O)(c1ccccc1)c1ccccc1): 34 ns

Structure (SMILES): Cc1cc(C)c2c(c1)c1cc(C)cc(C)c1n2-c1ccc2c(c1)B(c1c(C(C)C)cc(C(C)C)cc1C(C)C)c1cc(-n3c4c(C)cc(C)cc4c4cc(C)cc(C)c43)ccc1N2c1ccccc1
fluorescence lifetime (in c1cc(-c2cccc(-n3c4ccccc4c4ccccc43)c2)cc(-n2c3ccccc3c3ccccc32)c1): 9 ns

Structure (SMILES): CCCCCCCCCCCCN1C(=O)c2c(c3ccc4cc(-c5ccc(Cl)cc5)c(OC)cc4c3c3c2ccc2cc(-c4ccc(Cl)cc4)c(OC)cc23)C1=O
fluorescence lifetime (in ClCCl): 6.15 ns

Structure (SMILES): CCCCCCCCCCCCN1C(=O)c2ccc3c4ccc5c6c(ccc(c7ccc(c2c37)C1=O)c64)C(=O)NC5=O
fluorescence lifetime (in CN(C)C=O): 3 ns

Structure (SMILES): COc1ccc(-c2c3cc4cc(C)sc4cc3c(-c3ccc(OC)cc3)c3cc4cc(C)sc4cc23)cc1
fluorescence lifetime (in ClCCl): 9.7 ns

Structure (SMILES): CCC1(CC)c2ccccc2-c2c1c1c(c3c2C(CC)(CC)c2cc(N(c4ccccc4)c4ccccc4)ccc2-3)C(CC)(CC)c2cc(N(c3ccccc3)c3ccccc3)ccc2-1
fluorescence lifetime (in C1CCOC1): 1.9 ns

Structure (SMILES): N#Cc1cc2ccc([O-])cc2oc1=O
fluorescence lifetime (in O): 3.96 ns

Structure (SMILES): CCOc1ccc(/C=C/c2nc(N3CCOCC3)c3c([n+]2[O-])CCCC3)cc1
fluorescence lifetime (in ClCCl): 8.2 ns

Structure (SMILES): CC(=O)Nc1ccccc1C(=O)OC1CC(C)CCC1C(C)C (stereo unspecified)
fluorescence lifetime (in C1CCCCC1): 4 ns | fluorescence lifetime (in CC#N): 3.4 ns | fluorescence lifetime (in CCO): 3.6 ns | fluorescence lifetime (in Cc1ccccc1): 3.9 ns

Structure (SMILES): N#Cc1cc(C#N)c(-n2c3ccccc3c3ccccc32)cc1-n1c2ccccc2c2ccccc21
fluorescence lifetime (in Cc1ccccc1): 9 ns

Structure (SMILES): N#Cc1cc(-c2ccc(F)cc2)cnc1O
fluorescence lifetime (in CC#N): 5.22 ns | fluorescence lifetime (in CO): 5.23 ns | fluorescence lifetime (in O): 5.38 ns

Structure (SMILES): O=S1(=O)c2ccccc2C2(c3cc(-c4ccc(N(c5ccccc5)c5ccccc5)cc4)ccc3-c3ccc(-c4ccc(N(c5ccccc5)c5ccccc5)cc4)cc32)c2ccccc21
fluorescence lifetime (in ClCCl): 1.5 ns

Structure (SMILES): COc1ccc(C2=C(c3ccc(OC)cc3)C(c3ccccc3)=[N+]3C2=Nc2c(-c4ccc(OC)cc4)c(-c4ccc(OC)cc4)c(-c4ccccc4)n2[B-]3(F)F)cc1
fluorescence lifetime (in Cc1ccccc1): 0.08 ns

Structure (SMILES): CCC1(CC)c2cc(Br)ccc2-c2c1c1c(c3c2C(CC)(CC)c2cc(-c4cccs4)ccc2-3)C(CC)(CC)c2cc(Br)ccc2-1
fluorescence lifetime (in C1CCOC1): 0.92 ns

Further lines, results first:

fluorescence lifetime (in C1CCOC1): 0.3 ns
Structure (SMILES): CN(C)c1ccc(C(=Cc2ccc(/C=C(\C#N)c3ccccc3)cc2)c2ccc(N(C)C)cc2)cc1

fluorescence lifetime (in ClCCl): 0.5 ns
Structure (SMILES): CC1=C(c2ccc(N(C)C)cc2)C(C)=[N+]2C1=C(c1c(-c3ccccn3)nc3ccccn13)c1c(C)cc(C)n1[B-]2(F)F

fluorescence lifetime (in ClC(Cl)Cl): 2.8 ns
Structure (SMILES): COc1cc(OC)c2cc(-c3ccccc3CC#N)c(=O)oc2c1

fluorescence lifetime (in ClCCl): 1.6 ns
Structure (SMILES): COc1ccc2cc(/C=C/C3=C4CCc5ccccc5C4=[O+][B-](F)(F)O3)ccc2c1

fluorescence lifetime (in ClC(Cl)Cl): 0.377 ns
Structure (SMILES): Cc1ccc(C2=Cc3c4ccccc4cc[n+]3[B-](F)(F)O2)cc1

fluorescence lifetime (in C1CCCCC1): 0.3 ns | fluorescence lifetime (in ClCCl): 3.2 ns
Structure (SMILES): CC(C)[Si]1(C(C)C)c2cc(C=C(C#N)C#N)ccc2-c2ccc(N(C)C)cc21

fluorescence lifetime (in C1CCCCC1): 6.1 ns | fluorescence lifetime (in CC#N): 4.8 ns | fluorescence lifetime (in c1ccccc1): 11 ns
Structure (SMILES): CN(C)c1ccc2c(c1)-c1ccccc1C2=O

fluorescence lifetime (in ClCCl): 3.37 ns
Structure (SMILES): COC(=O)c1ccc(Oc2ccc3c4c(cccc24)C(=O)N(c2c(C(C)C)cccc2C(C)C)C3=O)cc1

fluorescence lifetime (in O): 7.69 ns
Structure (SMILES): Nc1ccc2ccc(O)cc2c1

fluorescence lifetime (in CC#N): 0.04 ns
Structure (SMILES): COc1ccc(/C=C/c2ccccc2)cc1

fluorescence lifetime (in ClCCl): 1.94 ns
Structure (SMILES): Oc1ccc(Br)cc1-c1nc2c(c3c1-c1ccccc1CC3)-c1ccccc1CC2

fluorescence lifetime (in ClCCl): 5.5 ns
Structure (SMILES): O=c1c2cccc3cccc(c32)c2nc3c4ccccc4c4ccccc4c3n12
